Measurements: patent US9949995B2, “Compositions and methods of treating of bacterial infections with β-lactamase inhibitors” (priority 2015, dated 2018)

Experiments:
[1] = target: KPC-2 (Klebsiella pneumoniae, UniProt Q9F663); experiment: IC50 assay, nitrocefin hydrolysis, KPC-2 (SBL); format: biochemical; conditions: nitrocefin 50 μM, 5 min pre-incubation at 25° C.; 10 mM phosphate-buffered saline, pH 7.4
Description: (§1) IC50 assays were performed to determine compound ability to inhibit enzyme.

[2] = target: VIM-2 (Escherichia coli, UniProt Q5U7L7); experiment: IC50 assay, nitrocefin hydrolysis, VIM-2 (MBL); format: biochemical; conditions: nitrocefin 50 μM, 5 min pre-incubation at 25° C.; 10 mM HEPES pH 7.5, 200 mM NaCl, 50 uM Zn2SO4, 50 ug/ml BSA
Description: as §1

[3] = target: PDC-3 (Pseudomonas aeruginosa, UniProt P24735, T105A); experiment: IC50 assay, nitrocefin hydrolysis, PDC-3 (SBL); format: biochemical
PDC-3, sequence (P24735 27-397 T105A): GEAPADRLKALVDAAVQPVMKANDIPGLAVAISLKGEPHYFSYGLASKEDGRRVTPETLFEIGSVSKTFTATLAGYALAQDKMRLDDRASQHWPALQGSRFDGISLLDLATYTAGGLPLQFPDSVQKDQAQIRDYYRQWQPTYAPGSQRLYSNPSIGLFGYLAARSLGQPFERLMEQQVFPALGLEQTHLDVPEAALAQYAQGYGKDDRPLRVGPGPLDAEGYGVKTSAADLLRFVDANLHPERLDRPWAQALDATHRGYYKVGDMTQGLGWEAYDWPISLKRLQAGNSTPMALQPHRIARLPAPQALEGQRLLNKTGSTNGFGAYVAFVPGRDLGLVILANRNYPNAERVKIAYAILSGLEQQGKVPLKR
Description: as §1

[4] = target: ADC-7 (Acinetobacter baumannii, UniProt Q6DRA1); experiment: IC50 assay, nitrocefin hydrolysis, ADC-7 (SBL); format: biochemical; conditions: nitrocefin 50 μM, 5 min pre-incubation at 25° C.; 10 mM phosphate-buffered saline, pH 7.4
Description: as §1

[5] = target: OXA-23 (Acinetobacter baumannii, UniProt Q9L4P2); experiment: IC50 assay, nitrocefin hydrolysis, OXA-23 (SBL); format: biochemical; conditions: nitrocefin 50 μM, 5 min pre-incubation at 25° C.; 50 mM Na Phosphate buffer, pH 7.2, 20 mM Na bicarbonate
OXA-23, sequence (Q9L4P2 18-273): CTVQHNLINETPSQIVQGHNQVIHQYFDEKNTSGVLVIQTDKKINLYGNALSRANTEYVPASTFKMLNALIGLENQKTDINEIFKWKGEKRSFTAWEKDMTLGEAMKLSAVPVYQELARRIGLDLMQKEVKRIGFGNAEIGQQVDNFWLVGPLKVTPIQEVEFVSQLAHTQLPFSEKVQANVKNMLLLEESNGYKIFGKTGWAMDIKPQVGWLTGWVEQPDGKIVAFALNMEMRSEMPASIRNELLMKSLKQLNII
Description: as §1

[6] = target: NDM-1 (Klebsiella pneumoniae, UniProt C7C422); experiment: IC50 assay, nitrocefin hydrolysis, NDM-1 (MBL); format: biochemical; conditions: nitrocefin 50 μM, 5 min pre-incubation at 25° C.; 10 mM HEPES pH 7.5, 200 mM NaCl, 50 uM Zn2SO4, 50 ug/ml BSA
NDM-1, sequence (C7C422 29-270, looked up): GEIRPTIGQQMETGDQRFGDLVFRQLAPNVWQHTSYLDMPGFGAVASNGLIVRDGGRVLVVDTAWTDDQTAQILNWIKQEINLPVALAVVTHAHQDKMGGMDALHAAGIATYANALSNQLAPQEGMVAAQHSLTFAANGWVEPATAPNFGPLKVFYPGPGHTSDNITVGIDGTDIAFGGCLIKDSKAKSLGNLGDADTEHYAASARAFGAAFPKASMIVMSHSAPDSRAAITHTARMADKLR
Description: as §1

[7] = target: VIM-24 (Escherichia coli, UniProt Q5U7L7, R205L); experiment: IC50 assay, nitrocefin hydrolysis, VIM-24 (MBL); format: biochemical
Description: as §1

[8] = target: IMP-1 (Serratia marcescens, UniProt P52699); experiment: IC50 assay, nitrocefin hydrolysis, IMP-1 (MBL); format: biochemical; conditions: nitrocefin 50 μM, 5 min pre-incubation at 25° C.; 10 mM HEPES pH 7.5, 200 mM NaCl, 50 uM Zn2SO4, 50 ug/ml BSA
IMP-1, sequence (P52699 19-246, looked up): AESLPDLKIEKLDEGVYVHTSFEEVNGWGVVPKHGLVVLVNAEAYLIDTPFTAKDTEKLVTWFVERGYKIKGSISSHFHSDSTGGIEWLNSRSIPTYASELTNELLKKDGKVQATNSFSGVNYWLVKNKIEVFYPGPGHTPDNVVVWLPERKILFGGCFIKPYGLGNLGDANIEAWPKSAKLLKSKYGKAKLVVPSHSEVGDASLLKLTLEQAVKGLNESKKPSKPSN
Description: as §1

KPC-2, sequence (Q9F663 25-293, looked up): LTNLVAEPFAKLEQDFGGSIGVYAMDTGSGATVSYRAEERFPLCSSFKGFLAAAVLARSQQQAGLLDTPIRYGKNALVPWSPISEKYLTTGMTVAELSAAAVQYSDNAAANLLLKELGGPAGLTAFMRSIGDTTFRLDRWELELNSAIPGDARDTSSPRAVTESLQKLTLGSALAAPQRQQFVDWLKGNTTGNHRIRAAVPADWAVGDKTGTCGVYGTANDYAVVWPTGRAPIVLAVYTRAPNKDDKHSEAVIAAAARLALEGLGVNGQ

O=C(O)c1cn([C@@H](Cc2ccccc2)B(O)O)nn1
melting point: 120 to 122 °C (dec.)

OB(O)[C@H](Cc1ccccc1)n1cc(-c2ccccc2)nn1
melting point: 151 to 153 °C (dec.)

OB(O)[C@H](Cc1ccccc1)n1cc(-c2ccsc2)nn1
melting point: 141 to 143 °C (dec.)

OB(O)[C@H](Cc1ccccc1)n1cc(COc2ccccc2)nn1
melting point: 113 to 115 °C (dec.)

CCOC(=O)c1cn([C@@H](Cc2cccc(C(=O)O)c2)B(O)O)nn1
melting point: 108 to 110 °C (dec.)

O=C(O)c1cccc(C[C@@H](B(O)O)n2cc(-c3ccccc3)nn2)c1
melting point: 88 to 90 °C (dec.)

O=C(O)c1cccc(C[C@@H](B(O)O)n2cc(-c3ccsc3)nn2)c1
melting point: 185 to 187 °C (dec.)

CCOC(=O)c1cn(CB(O)O)nn1
melting point: 123 to 125 °C (dec.)

OB(O)Cn1cc(-c2ccccc2)nn1
melting point: 122 to 124 °C (dec.)

OB(O)Cn1cc(-c2ccsc2)nn1
melting point: 170 to 172 °C (dec.)

OB(O)Cn1cc(COc2ccccc2)nn1
melting point: 128 to 131 °C (dec.)

Cc1ccc(S(=O)(=O)NCc2cn(CB(O)O)nn2)cc1 [Cmp 1a]
IC50 [1]: 1.3 ± 0.1 µM | IC50 [2]: > 100 µM | IC50 [3]: 9 ± 1 µM | IC50 [4]: 24 ± 3 µM | IC50 [5]: > 100 µM | IC50 [6]: > 100 µM | IC50 [7]: > 100 µM | IC50 [8]: > 100 µM

O=C(NCc1cn(CB(O)O)nn1)c1ccccc1 [Cmp 1c]
IC50 [1]: 10.8 ± 1.5 µM | IC50 [2]: 55 ± 5 µM | IC50 [3]: 26 ± 3 µM | IC50 [4]: 23 ± 3 µM | IC50 [5]: > 100 µM | IC50 [6]: > 100 µM | IC50 [7]: > 100 µM | IC50 [8]: > 100 µM

O=C(Cc1ccccc1)NCc1cn(CB(O)O)nn1 [Cmp 1d]
IC50 [1]: 12 ± 1 µM | IC50 [2]: 92 ± 9 µM | IC50 [3]: 23 ± 3 µM | IC50 [4]: 39 ± 4 µM | IC50 [5]: > 100 µM | IC50 [6]: > 100 µM | IC50 [7]: > 100 µM | IC50 [8]: > 100 µM

O=C(NCc1cn(CB(O)O)nn1)Nc1ccccc1 [Cmp 1e]
IC50 [1]: 5.2 ± 0.2 µM | IC50 [2]: 39 ± 4 µM | IC50 [3]: 10 ± 1 µM | IC50 [4]: 14 ± 2 µM | IC50 [5]: > 100 µM | IC50 [6]: > 100 µM | IC50 [7]: > 100 µM | IC50 [8]: > 100 µM
